From US10221163B2 (priority 2015, dated 2019)
Where two headings read alike, the source gives them in different places.

Key:
IMP-1 = IMP-1 (Serratia marcescens, UniProt P52699); test: biochemical; assay type: biochemical; conditions: fluorescence assay, CCF2-FA substrate, 2 pM enzyme, 2 hours at 25° C.; read-out: IMP-1 IC50
In short: (§1)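 Test compound, enzyme and the FRET cephalosporin substrate CCF2-FA are incubated together for 2 hours at 25° C. Cleavage is followed by fluorescence, and IC50 values are derived from semi-logarithmic inhibition curves fitted with a 4-parameter model.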

NDM-1 = NDM-1 (Klebsiella pneumoniae, UniProt C7C422); test: biochemical; assay type: biochemical; conditions: CCF2-FA substrate, 1 pM enzyme, 2 hours at 25° C.
Chain of NDM-1 (C7C422 whole entry, looked up, species assumed): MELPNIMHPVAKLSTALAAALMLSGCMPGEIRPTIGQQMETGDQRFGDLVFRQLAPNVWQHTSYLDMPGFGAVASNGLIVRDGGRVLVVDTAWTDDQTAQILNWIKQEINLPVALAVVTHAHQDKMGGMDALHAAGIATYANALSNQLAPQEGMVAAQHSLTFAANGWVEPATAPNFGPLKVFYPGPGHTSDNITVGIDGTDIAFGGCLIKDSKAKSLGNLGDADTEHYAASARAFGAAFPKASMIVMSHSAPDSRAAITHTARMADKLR
In short: as §1

[1] = system: Pseudomonas aeruginosa efflux− (MB9799), IMP-1; assay type: cell-based; conditions: concentration restoring susceptibility to imipenem at 2 μg/mL in the presence of a class A, C, D serine β-lactamase inhibitor closely related to relebactam
In short: (§2)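 P. aeruginosa PAO1-derived IMP-1 strains, efflux+ MB9798 and efflux− MB9799, tested by standard microbroth MIC with imipenem and/or ceftazidime fixed, usually at CLSI breakpoint, plus fixed class A/C β-lactamase inhibitor against AmpC. Inhibitor titrated; concentration restoring susceptibility recorded; MB9798/MB9799 fold difference indicates efflux.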

[2] = system: Escherichia coli expressing NDM-1 (CLB30005, CLB30016); assay type: cell-based; conditions: with imipenem 1 μg/ml; 95% inhibition of bacterial growth
In short: (§3)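 Growth by absorbance after 22–24 h at 35°C defined the read-out, with imipenem fixed at 1 μg/ml alongside compound. Inocula came from overnight blood-agar colonies at 35°C, resuspended in saline and diluted 1:100 in 1.1×CAMHB.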

[3] = system: Klebsiella pneumoniae expressing VIM-1 (IHMA599644); assay type: cell-based; conditions: with imipenem 1 μg/ml; 95% inhibition of bacterial growth
In short: as §3

[4] = system: Serratia marcescens expressing IMP-1 (CL5741); assay type: cell-based; conditions: with imipenem 1 μg/ml; 95% inhibition of bacterial growth
In short: as §3

[5] = system: Pseudomonas aeruginosa MB9798 vs MB9799; conditions: ratio MITC95 PA_9798/MITC95 PA_9799
In short: as §2

[6] = system: Pseudomonas aeruginosa efflux+ (MB9798), IMP-1; assay type: cell-based; conditions: concentration restoring susceptibility to imipenem at 2 μg/mL in the presence of a class A, C, D serine β-lactamase inhibitor closely related to relebactam
In short: as §2

VIM-1 = VIM-1 (Pseudomonas aeruginosa (strain ATCC 15692 / DSM 22644 / CIP 104116 / JCM 14847 / LMG 12228 / 1C / PRS 101 / PAO1), UniProt A0A0F7KYQ8); test: biochemical; conditions: CCF2-FA substrate, 30 pM enzyme, 2 hours at 25° C.
In short: as §1

[7] = fluorescence assay, read-out: NDM-1 IC50
[8] = fluorescence assay, read-out: VIM-1 IC50

Chain of IMP-1 (P52699 whole entry, looked up, species assumed): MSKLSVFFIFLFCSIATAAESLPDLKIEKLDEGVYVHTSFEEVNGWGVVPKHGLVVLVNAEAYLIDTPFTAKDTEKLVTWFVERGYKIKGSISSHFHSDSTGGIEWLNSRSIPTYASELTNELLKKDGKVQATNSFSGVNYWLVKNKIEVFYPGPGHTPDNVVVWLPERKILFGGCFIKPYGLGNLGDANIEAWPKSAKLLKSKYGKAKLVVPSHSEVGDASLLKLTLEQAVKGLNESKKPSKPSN

| Compound | IC50 (IMP-1) [nM] | IC50 (NDM-1; [7]) [nM] | P. aeruginosa expressing IMP-1, efflux − (MB9799) MITC95 [1] [µM] | Escherichia coli expressing NDM-1 (CLB30016) MITC95 [2] [µM] | Klebsiella pneumoniae expressing VIM-1 (IHMA599644) MITC95 [3] [µM] | Serratia marcescens expressing IMP-1 (CL5741) MITC95 [4] [µM] | Efflux ratio [5] | P. aeruginosa expressing IMP-1, efflux + (MB9798) MITC95 [6] [µM] | IC50 (VIM-1; [8]) [nM] | IC50 (VIM-1; VIM-1 IC50, fluorescence assay) [nM] | IC50 (NDM-1; NDM-1 IC50, fluorescence assay) [nM] |
| --- | --- | --- | --- | --- | --- | --- | --- | --- | --- | --- | --- |
| Nc1nc2c(-c3ccc(S(=O)(=O)NC4C5CNCC54)c(S(N)(=O)=O)c3-c3nnn[nH]3)cccc2s1.O=C(O)C(F)(F)F (stereo not drawn) [Example 111, 6-(4-(2-aminobenzo[d]thiazol-4-yl)-2-sulfamoyl-3-(1H-tetrazol-5-yl)phenylsulfonamido)-3-azabicyclo[3.1.0]hexan-3-ium 2,2,2-trifluoroacetate] | 0.429 | 0.0746 | 1.563 | 1.563 | 3.125 | 1.563 | 0.50 | 0.7813 | 0.298 | – | – |
| Nc1nc2c(-c3ccc(S(=O)(=O)NCC4CNCCO4)c(S(N)(=O)=O)c3-c3nnn[nH]3)cccc2s1.O=C(O)C(F)(F)F (stereo not drawn) [Example 112, 2-((4-(2-aminobenzo[d]thiazol-4-yl)-2-sulfamoyl-3-(1H-tetrazol-5-yl)phenylsulfonamido)methyl)morpholin-4-ium 2,2,2-trifluoroacetate] | 0.318 | 0.046 | 1.563 | 1.563 | 3.125 | 1.563 | 1.00 | 1.563 | – | 0.219 | – |
| Nc1nc2c(-c3ccc(S(=O)(=O)NCC4(N)CCOCC4)c(S(N)(=O)=O)c3-c3nnn[nH]3)cccc2s1.O=CO [Example 115, 4-((4-(2-aminobenzo[d]thiazol-4-yl)-2-sulfamoyl-3-(1H-tetrazol-5-yl)phenylsulfonamido)methyl)tetrahydro-2H-pyran-4-aminium formate] | 0.324 | 0.0602 | 3.125 | 3.125 | 6.25 | 3.125 | 1.00 | 3.125 | 0.388 | – | – |
| CC(CN)NS(=O)(=O)c1ccc(-c2cccc3sc(N)nc23)c(-c2nnn[nH]2)c1S(N)(=O)=O.O=CO (stereo not drawn) [Example 116, 2-(4-(2-aminobenzo[d]thiazol-4-yl)-2-sulfamoyl-3-(1H-tetrazol-5-yl)phenylsulfonamido)propan-1-aminium formate] | 0.267 | 0.0239 | 1.563 | 1.563 | 3.125 | 1.563 | 0.50 | 0.7813 | – | 0.265 | – |
| Nc1nc2c(-c3ccc(S(=O)(=O)NCC4CCNC4)c(S(N)(=O)=O)c3-c3nnn[nH]3)cccc2s1.O=CO (stereo not drawn) [Example 120, 3-((4-(2-aminobenzo[d]thiazol-4-yl)-2-sulfamoyl-3-(1H-tetrazol-5-yl)phenylsulfonamido)methyl)pyrrolidin-1-ium formate] | 0.258 | 0.0495 | 1.563 | 1.563 | 3.125 | 1.563 | 0.50 | 0.7813 | – | 0.202 | – |
| CN(C[C@@H]1CCCN1)S(=O)(=O)c1ccc(-c2cccc3sc(N)nc23)c(-c2nnn[nH]2)c1S(N)(=O)=O.O=CO [Example 121, (S)-2-((4-(2-aminobenzo[d]thiazol-4-yl)-N-methyl-2-sulfamoyl-3-(1H-tetrazol-5-yl)phenylsulfonamido)methyl)pyrrolidin-1-ium formate] | 2.84 | 1.42 | 3.125 | 6.25 | 12.5 | 3.125 | 4.00 | 12.5 | 7.08 | – | – |
| Nc1nc2c(-c3ccc(S(=O)(=O)NCCC(N)CF)c(S(N)(=O)=O)c3-c3nnn[nH]3)cccc2s1.O=CO (stereo not drawn) [Example 123, 4-(4-(2-aminobenzo[d]thiazol-4-yl)-2-sulfamoyl-3-(1H-tetrazol-5-yl)phenylsulfonamido)-1-fluorobutan-2-aminium formate] | 0.219 | 0.036 | 1.563 | 1.563 | 3.125 | 1.563 | 1.00 | 1.563 | – | 0.189 | – |
| Nc1nc2c(-c3ccc(S(=O)(=O)NCCC(N)C(F)F)c(S(N)(=O)=O)c3-c3nnn[nH]3)cccc2s1.O=CO (stereo not drawn) [Example 124, 4-(4-(2-aminobenzo[d]thiazol-4-yl)-2-sulfamoyl-3-(1H-tetrazol-5-yl)phenylsulfonamido)-1,1-difluorobutan-2-aminium formate] | 0.222 | – | 3.125 | 12.5 | 12.5 | 3.125 | 4.00 | 12.5 | – | 0.254 | 0.00652 |
| C[C@H](N)CNS(=O)(=O)c1ccc(-c2cccc3sc(N)nc23)c(-c2nnn[nH]2)c1S(N)(=O)=O.O=CO [Example 127, (S)-4-(2-aminobenzo[d]thiazol-4-yl)-N1-(2-aminopropyl)-3-(1H-tetrazol-5-yl)benzene-1,2-disulfonamide, formate salt] | 0.322 | 0.0421 | 1.563 | 3.125 | 3.125 | 1.563 | 1.00 | 1.563 | – | 0.236 | – |
| COC(=O)[C@H]1C[C@@H](NS(=O)(=O)c2ccc(-c3cccc4sc(N)nc34)c(-c3nnn[nH]3)c2S(N)(=O)=O)CN1 [Example 128, Methyl (2R,4R)-4-((4-(2-aminobenzo[d]thiazol-4-yl)-2-sulfamoyl-3-(1H-tetrazol-5-yl)phenyl)sulfonamido)pyrrolidine-2-carboxylate] | 0.177 | 0.0443 | 6.25 | 3.125 | 12.5 | 6.25 | 1.00 | 6.25 | – | 0.199 | – |
| NS(=O)(=O)c1c(S(=O)(=O)N[C@@H]2CCNC2)ccc(-c2cccc3nc(O)[nH]c23)c1-c1nnn[nH]1 [Example 130, (R)-4-(2-hydroxy-1H-benzo[d]imidazol-7-yl)-N1-(pyrrolidin-3-yl)-3-(1H-tetrazol-5-yl)benzene-1,2-disulfonamide] | 0.684 | 0.0529 | 1.563 | 1.563 | 3.125 | 1.563 | 0.50 | 0.7813 | 0.151 | – | – |
| NS(=O)(=O)c1c(S(=O)(=O)N[C@@H]2CCNC2)ccc(-c2cccc3c2OC(F)(F)O3)c1-c1nnn[nH]1 [Example 131, (R)-4-(2,2-difluorobenzo[d][1,3]dioxol-4-yl)-N1-(pyrrolidin-3-yl)-3-(1H-tetrazol-5-yl)benzene-1,2-disulfonamide] | 1.83 | 0.275 | 0.7813 | 1.563 | 1.563 | 3.125 | 16.00 | 12.5 | 0.12 | – | – |
